Measurements: patent publication US11149023B2, “Substituted triazole derivatives and uses thereof” (Bayer Pharma Aktiengesellschaft, priority 2017, dated 2021)

Experiments:
human V1a receptor = human V1a receptor (Homo sapiens (Human), UniProt P37288); assay: Cellular in vitro assay for determining vasopressin receptor activity (V1a, aequorin luminescence); assay type: cell-based; details: for IC50: CHO cell line transfected with human V1a receptor, [Arg8]-vasopressin at EC50 concentration, read-out: IC50 hV1a; for ratio IC50 hV2/hV1a: selectivity, IC50 hV2 divided by IC50 hV1a
Procedure: (§1) B-1. Cellular In Vitro Assay for Determining Vasopressin Receptor Activity
(§2) The identification of agonists and antagonists of the V1a and V2 vasopressin receptors from humans, rats and dogs as well as the quantification of the activity of the compounds of the invention is carried out using recombinant cell lines. These cell lines originally derive from a hamster's ovary epithelial cell (Chinese Hamster Ovary, CHO K1, ATCC: American Type Culture Collection, Manassas, Va. 20108, USA). The test cell lines constitutively express the human, rat or dog V1a or V2 receptors. In case of the Gαq-coupled V1a receptors, cells are also stably transfected with a modified form of the calcium-sensitive photoproteins aequorin (human and rat V1a) or obe-lin (dog V1a), which, after reconstitution with the cofactor coelenterazine, emit light when there are increases in free calcium concentrations [Rizzuto R, Simpson A W, Brini M, Pozzan T, Nature 358, 325-327 (1992); Illarionov B A, Bondar V S, Illarionova V A, Vysotski E S, Gene 153 (2), 273-274 (1995)]. The resulting vasopressin receptor cells react to stimulation of the recombinantly expressed Via receptors by intracellular release of calcium ions, which can be quantified by the resulting photoprotein luminescence. The Gs-coupled V2 receptors are stably transfected into cell lines expressing the gene for firefly luciferase under control of a CRE-responsible promoter. Activation of V2 receptors induces the activation of the CRE-responsive promoter via cAMP increase, thereby inducing the expression of firefly luciferase. The light emitted by photoproteins of V1a cell lines as well as the light emitted by firefly luciferase of V2 cell lines corresponds to the activation or inhibition of the respective vasopressin receptor. The bioluminescence of the cell lines is detected using a suitable luminometer [Milligan G, Marshall F, Rees S, Trends in Pharmacological Sciences 17, 235-237 (1996)].
Vasopressin V1a Receptor Cell Lines:
On the day before the assay, the cells are plated out in culture medium (DMEM/F12, 2% FCS, 2 mM glutamine, 10 mM HEPES, 5 μg/ml coelenterazine) in 384-well microtiter plates and kept in a cell incubator (96% humidity, 5% v/v CO2, 37° C.). On the day of the assay, test compounds in various concentrations are placed for 10 minutes in the wells of the microtiter plate before the agonist [Arg^8]-vasopressin at EC50 concentration is added. The resulting light signal is measured immediately in a luminometer.
(§3) Table 1A below lists individual IC50 values for the compounds of the invention (including racemic mixtures as well as separated enantiomers) that were obtained from cell lines transfected with the human Via or V2 receptor: […]

human V2 receptor = human V2 receptor (Homo sapiens (Human), UniProt P30518); assay: Cellular in vitro assay for determining vasopressin receptor activity (V2, CRE-luciferase); assay type: cell-based; details: CHO cell line transfected with human V2 receptor; [Arg8]-vasopressin at EC50 concentration; read-out: IC50 hV2
Procedure: as §1, §2
Vasopressin V2 Receptor Cell Lines:
On the day before the assay, the cells are plated out in culture medium (DMEM/F12, 2% FCS, 2 mM glutamine, 10 mM HEPES) in 384-well microtiter plates and kept in a cell incubator (96% humidity, 5% v/v CO2, 37° C.). On the day of the assay, test compounds in various concentrations and the agonist [Arg^8]-vasopressin at EC50 concentration are added together to the wells, and plates are incubated for 3 hours in a cell incubator. Upon addition of the cell lysis reagent Triton™ and the substrate luciferin, luminescence of firefly luciferase is measured in a luminometer.
as §3

Chain of human V2 receptor (P30518 whole entry): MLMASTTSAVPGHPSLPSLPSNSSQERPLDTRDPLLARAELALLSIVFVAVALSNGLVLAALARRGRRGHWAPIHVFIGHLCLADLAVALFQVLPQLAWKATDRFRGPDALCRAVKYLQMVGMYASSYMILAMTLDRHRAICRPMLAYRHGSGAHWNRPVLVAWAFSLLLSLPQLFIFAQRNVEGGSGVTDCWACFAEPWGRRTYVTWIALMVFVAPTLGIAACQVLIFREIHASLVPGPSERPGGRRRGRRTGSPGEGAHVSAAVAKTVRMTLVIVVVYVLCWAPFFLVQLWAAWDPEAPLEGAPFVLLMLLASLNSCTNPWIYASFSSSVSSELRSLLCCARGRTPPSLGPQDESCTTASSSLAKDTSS
Chain of human V1a receptor (P37288 whole entry): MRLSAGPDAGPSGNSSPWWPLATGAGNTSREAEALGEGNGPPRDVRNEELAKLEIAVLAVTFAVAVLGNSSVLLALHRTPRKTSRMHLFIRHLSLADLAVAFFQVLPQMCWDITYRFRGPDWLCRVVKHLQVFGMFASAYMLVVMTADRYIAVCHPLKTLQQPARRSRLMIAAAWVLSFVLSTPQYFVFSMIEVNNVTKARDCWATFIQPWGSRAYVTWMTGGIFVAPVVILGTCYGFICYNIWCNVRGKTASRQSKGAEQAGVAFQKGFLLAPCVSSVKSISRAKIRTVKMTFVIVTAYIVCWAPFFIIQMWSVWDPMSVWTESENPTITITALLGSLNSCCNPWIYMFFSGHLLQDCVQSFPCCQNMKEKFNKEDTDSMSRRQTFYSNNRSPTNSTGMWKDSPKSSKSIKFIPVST

IC50 (human V1a receptor)	ratio IC50 hV2/hV1a (human V1a receptor)	IC50 (human V2 receptor)	SMILES
1.5 nM	38.0	57 nM	O=C(NC(Cn1c(-c2ccc(Cl)cc2)nn(Cc2ncn(-c3ncccc3Cl)n2)c1=O)C(F)(F)F)C1(C(F)(F)F)CC1 (racemic) [Example 41, N-{3-[3-(4-Chlorophenyl)-1-{[1-(3-chloropyridin-2-yl)-1H-1,2,4-triazol-3-yl]methyl}-5-oxo-1,5-dihydro-4H-1,2,4-triazol-4-yl]-1,1,1-trifluoropropan-2-yl}-1-(trifluoromethyl)cyclopropane-carboxamide]
1.75 nM	68.6	120 nM	CS(=O)(=O)CC(=O)NC(Cn1c(-c2ccc(Cl)cc2)nn(Cc2ncn(-c3ncccc3Cl)n2)c1=O)C(F)(F)F (racemic) [Example 44, N-{3-[3-(4-Chlorophenyl)-1-{[1-(3-chloropyridin-2-yl)-1H-1,2,4-triazol-3-yl]methyl}-5-oxo-1,5-dihydro-4H-1,2,4-triazol-4-yl]-1,1,1-trifluoropropan-2-yl}-2-(methylsulfonyl)acetamide]
5.4 nM	–	305 nM	O=C(NC(Cn1c(-c2ccc(Cl)cc2)nn(Cc2ncn(-c3ncccc3Cl)n2)c1=O)C(F)(F)F)[C@@H]1C[C@H](F)CN1 (mixture of isomers) [Example 48, N-{3-[3-(4-Chlorophenyl)-1-{[1-(3-chloropyridin-2-yl)-1H-1,2,4-triazol-3-yl]methyl}-5-oxo-1,5-dihydro-4H-1,2,4-triazol-4-yl]-1,1,1-trifluoropropan-2-yl}-4-fluoro-prolinamide]
3.35 nM	–	378 nM	O=C(NC(Cn1c(-c2ccc(Cl)cc2)nn(Cc2ncn(-c3ncccc3Cl)n2)c1=O)C(F)(F)F)[C@@H]1C[C@@H](F)CN1 (mixture of isomers) [Example 49, N-{3-[3-(4-Chlorophenyl)-1-{[1-(3-chloropyridin-2-yl)-1H-1,2,4-triazol-3-yl]methyl}-5-oxo-1,5-dihydro-4H-1,2,4-triazol-4-yl]-1,1,1-trifluoropropan-2-yl}-4-fluoro-prolinamide]
2.8 nM	167.9	470 nM	O=C(NC(Cn1c(-c2ccc(Cl)cc2)nn(Cc2ncn(-c3ncccc3Cl)n2)c1=O)C(F)(F)F)c1ccc(Cl)s1 (racemic) [Example 52, 5-Chloro-N-{3-[3-(4-chlorophenyl)-1-{[1-(3-chloropyridin-2-yl)-1H-1,2,4-triazol-3-yl]methyl}-5-oxo-1,5-dihydro-4H-1,2,4-triazol-4-yl]-1,1,1-trifluoropropan-2-yl}thiophene-2-carboxamide]
3 nM	40.2	120 nM	O=C(NC(Cn1c(-c2ccc(Cl)cc2)nn(Cc2ncn(-c3ncccc3C(F)(F)F)n2)c1=O)C(F)(F)F)C1(C(F)(F)F)CC1 (racemic) [Example 58, N-{3-[3-(4-Chlorophenyl)-5-oxo-1-({1-[3-(trifluoromethyl)pyridin-2-yl]-1H-1,2,4-triazol-3-yl}methyl)-1,5-dihydro-4H-1,2,4-triazol-4-yl]-1,1,1-trifluoropropan-2-yl}-1-(trifluoromethyl)cyclopropane-1-carboxamide]
1.9 nM	39.5	75 nM	O=C(CCC(F)(F)F)NC(Cn1c(-c2ccc(Cl)cc2)nn(Cc2ncn(-c3ncccc3C(F)(F)F)n2)c1=O)C(F)(F)F (racemic) [Example 59, N-{3-[3-(4-Chlorophenyl)-5-oxo-1-({1-[3-(trifluoromethyl)pyridin-2-yl]-1H-1,2,4-triazol-3-yl}methyl)-1,5-dihydro-4H-1,2,4-triazol-4-yl]-1,1,1-trifluoropropan-2-yl}-4,4,4-trifluorobutanamide]
18.5 nM	83.8	1550 nM	CC(F)(F)C(=O)NC(Cn1c(-c2ccc(Cl)cc2)nn(Cc2ncn(-c3ncccc3C(F)(F)F)n2)c1=O)C(F)(F)F (racemic) [Example 60, N-{3-[3-(4-Chlorophenyl)-5-oxo-1-({1-[3-(trifluoromethyl)pyridin-2-yl]-1H-1,2,4-triazol-3-yl}methyl)-1,5-dihydro-4H-1,2,4-triazol-4-yl]-1,1,1-trifluoropropan-2-yl}-2,2-difluoropropanamide]
1.6 nM	103.1	165 nM	O=C(NC(Cn1c(-c2ccc(Cl)cc2)nn(Cc2ncn(-c3ncccc3C(F)(F)F)n2)c1=O)C(F)(F)F)C1CS(=O)(=O)C1 (racemic) [Example 62, N-{3-[3-(4-Chlorophenyl)-5-oxo-1-({1-[3-(trifluoromethyl)pyridin-2-yl]-1H-1,2,4-triazol-3-yl}methyl)-1,5-dihydro-4H-1,2,4-triazol-4-yl]-1,1,1-trifluoropropan-2-yl}-1,1-dioxo-1lambda^6-thietane-3-carboxamide]
0.72 nM	82.2	58.8 nM	O=C(NC(Cn1c(-c2ccc(Cl)cc2)nn(Cc2ncn(-c3ncccc3C(F)(F)F)n2)c1=O)C(F)(F)F)C1CC(F)(F)C1 (racemic) [Example 63, N-{3-[3-(4-Chlorophenyl)-5-oxo-1-({1-[3-(trifluoromethyl)pyridin-2-yl]-1H-1,2,4-triazol-3-yl}methyl)-1,5-dihydro-4H-1,2,4-triazol-4-yl]-1,1,1-trifluoropropan-2-yl}-3,3-difluorocyclobutane-1-carboxamide]
1.2 nM	65.2	78.2 nM	CS(=O)(=O)CC(=O)NC(Cn1c(-c2ccc(Cl)cc2)nn(Cc2ncn(-c3ncccc3C(F)(F)F)n2)c1=O)C(F)(F)F (racemic) [Example 64, N-{3-[3-(4-Chlorophenyl)-5-oxo-1-({1-[3-(trifluoromethyl)pyridin-2-yl]-1H-1,2,4-triazol-3-yl}methyl)-1,5-dihydro-4H-1,2,4-triazol-4-yl]-1,1,1-trifluoropropan-2-yl}-2-(methanesulfonyl)acetamide]
9.1 nM	53.8	490 nM	N#CC1(C(=O)NC(Cn2c(-c3ccc(Cl)cc3)nn(Cc3ncn(-c4ncccc4C(F)(F)F)n3)c2=O)C(F)(F)F)CC1 (racemic) [Example 65, N-{3-[3-(4-Chlorophenyl)-5-oxo-1-({1-[3-(trifluoromethyl)pyridin-2-yl]-1H-1,2,4-triazol-3-yl}methyl)-1,5-dihydro-4H-1,2,4-triazol-4-yl]-1,1,1-trifluoropropan-2-yl}-1-cyanocyclopropane-1-carboxamide]
1.15 nM	49.6	57 nM	O=C(CC(F)(F)F)NC(Cn1c(-c2ccc(Cl)cc2)nn(Cc2ncn(-c3ncccc3C(F)(F)F)n2)c1=O)C(F)(F)F (racemic) [Example 67, N-{3-[3-(4-Chlorophenyl)-5-oxo-1-({1-[3-(trifluoromethyl)pyridin-2-yl]-1H-1,2,4-triazol-3-yl}methyl)-1,5-dihydro-4H-1,2,4-triazol-4-yl]-1,1,1-trifluoropropan-2-yl}-3,3,3-trifluoropropanamide]
6.15 nM	86.2	530 nM	COCC(=O)NC(Cn1c(-c2ccc(Cl)cc2)nn(Cc2ncn(-c3ncccc3C(F)(F)F)n2)c1=O)C(F)(F)F (racemic) [Example 68, N-{3-[3-(4-Chlorophenyl)-5-oxo-1-({1-[3-(trifluoromethyl)pyridin-2-yl]-1H-1,2,4-triazol-3-yl}methyl)-1,5-dihydro-4H-1,2,4-triazol-4-yl]-1,1,1-trifluoropropan-2-yl}-2-methoxyacetamide]

SMILES	IC50 (human V1a receptor)	ratio IC50 hV2/hV1a (human V1a receptor)	IC50 (human V2 receptor)
O=C(CF)NC(Cn1c(-c2ccc(Cl)cc2)nn(Cc2ncn(-c3ncccc3C(F)(F)F)n2)c1=O)C(F)(F)F (racemic) [Example 61, N-{3-[3-(4-Chlorophenyl)-5-oxo-1-({1-[3-(trifluoromethyl)pyridin-2-yl]-1H-1,2,4-triazol-3-yl}methyl)-1,5-dihydro-4H-1,2,4-triazol-4-yl]-1,1,1-trifluoropropan-2-yl}-2-fluoroacetamide]	50 nM	76.0	3800 nM
